Our source for the IC50 values is US20250387400A1, “TYK2 INHIBITORS” (BIOGEN MA INC., priority 2022, published 2025).

Structures can show the parent of a compound that is named as a salt. Where two headings read alike, the source gives them in different places.

Holding throughout (type): biochemical
The target in experiment [1] is T1, catalytic kinase (JH1) domain of human JAK3 (Homo sapiens, UniProt P52333).
T1 construct: Catalytic activities of recombinant JAK2, JAK3 and TYK2 kinase domain
In words: ADP-Glo kinase assay, JAK3 kinase domain. The method, then:
(§1) As summarized in Table 3 below, compounds of the disclosure were assessed for their ability to inhibit TYK2, JAK1, JAK2, and JAK3 activity.
(§2) The kinase activity of recombinantly generated catalytic kinase (also known as JH1) domain of human JAK1, JAK2, JAK3 and TYK2 were evaluated in a plate-based assay using the ADP-Glo™ Kinase Assay platform. […] The reactions proceed for 100 minutes and the catalytic activity is quantified by first depleting the unused ATP, converting the hydrolyzed ADP into ATP to generate luminescence in a luciferase reaction; which is the basis of the ADP-Glo platform. Compounds are tested at either 10 μM or 1 μM top concentration, 11 points of 3-fold dilution. The data is normalized and the percent activity versus log concentration of compound is fitted with a 4-parameter logistic model to generate a curve and an IC50 value.

Experiment [2] has as its target T2, catalytic kinase (JH1) domain of human JAK2 (Homo sapiens, UniProt O60674).
T2 construct: Catalytic activities of recombinant JAK2, JAK3 and TYK2 kinase domain
In words: ADP-Glo kinase assay, JAK2 kinase domain. The method, then: as §1, §2

For experiment [3], the target named is T3, catalytic kinase (JH1) domain of human TYK2 (Homo sapiens, UniProt P29597).
T3 construct: recombinantly generated catalytic kinase (also known as JH1) domain of human JAK1, JAK2, JAK3 and TYK2
T3 sequence (P29597 897-1176 limits assumed): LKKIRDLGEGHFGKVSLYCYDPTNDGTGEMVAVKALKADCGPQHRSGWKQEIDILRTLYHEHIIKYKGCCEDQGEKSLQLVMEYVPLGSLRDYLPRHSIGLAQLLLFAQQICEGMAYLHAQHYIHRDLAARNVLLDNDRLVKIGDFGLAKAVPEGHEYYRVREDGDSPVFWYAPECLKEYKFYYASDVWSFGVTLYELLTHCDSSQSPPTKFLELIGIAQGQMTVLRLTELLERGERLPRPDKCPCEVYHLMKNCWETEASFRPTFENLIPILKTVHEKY
In words: ADP-Glo kinase assay, TYK2 kinase domain. The protocol: as §1, §2

Experiment [4] deals with T4, catalytic kinase (JH1) domain of human JAK1 (Homo sapiens, UniProt P23458).
T4 construct: 4 nM of recombinant JAK1 kinase domain is used to phosphorylate
As to the kind of experiment: ADP-Glo kinase assay, JAK1 kinase domain. The method, then:
as §1, §2
For orientation: ADP-Glo turns the ADP formed in a reaction into a luminescent signal.

Setting [5] is: 0.3 nM recombinant JAK3 kinase domain, 50 μM JAK3-974 peptide, 4 μM ATP, 100 minutes, read-out: JAK3 biochem IC50 (nM) Mean.
[6] abbreviates: 0.2 nM recombinant JAK2 kinase domain, 50 μM JAK3-974 peptide, 15 μM ATP, 100 minutes, read-out: JAK2 biochem IC50 (nM) Mean.
The mark [7] stands for this setting: 2 nM recombinant TYK2 kinase domain, 50 μM JAK3-974 peptide, 10 μM ATP, 100 minutes, read-out: TYK2 biochem IC50 (nM) Mean.
Where [8] appears, read: 4 nM recombinant JAK1 kinase domain, 50 μM JAK3-342 peptide, 35 μM ATP, 100 minutes, read-out: JAK1 biochem IC50 (nM) Mean.

T2 sequence (O60674 849-1124 limits assumed): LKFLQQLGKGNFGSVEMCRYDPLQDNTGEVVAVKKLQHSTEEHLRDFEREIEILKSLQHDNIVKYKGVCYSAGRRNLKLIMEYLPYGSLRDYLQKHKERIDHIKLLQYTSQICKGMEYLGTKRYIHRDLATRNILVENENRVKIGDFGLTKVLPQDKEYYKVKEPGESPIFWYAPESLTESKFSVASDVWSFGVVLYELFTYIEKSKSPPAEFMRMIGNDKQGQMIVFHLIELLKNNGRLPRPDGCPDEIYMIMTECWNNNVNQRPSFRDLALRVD
T1 sequence (P52333 822-1111 limits assumed): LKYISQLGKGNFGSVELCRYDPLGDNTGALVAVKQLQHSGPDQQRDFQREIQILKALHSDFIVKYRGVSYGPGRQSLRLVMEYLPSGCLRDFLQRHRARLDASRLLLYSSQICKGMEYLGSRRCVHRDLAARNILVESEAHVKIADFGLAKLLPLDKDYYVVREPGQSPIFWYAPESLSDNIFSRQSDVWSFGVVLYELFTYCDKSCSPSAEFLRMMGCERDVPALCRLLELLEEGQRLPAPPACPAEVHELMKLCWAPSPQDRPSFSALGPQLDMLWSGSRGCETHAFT
T4 sequence (P23458 875-1153 limits assumed): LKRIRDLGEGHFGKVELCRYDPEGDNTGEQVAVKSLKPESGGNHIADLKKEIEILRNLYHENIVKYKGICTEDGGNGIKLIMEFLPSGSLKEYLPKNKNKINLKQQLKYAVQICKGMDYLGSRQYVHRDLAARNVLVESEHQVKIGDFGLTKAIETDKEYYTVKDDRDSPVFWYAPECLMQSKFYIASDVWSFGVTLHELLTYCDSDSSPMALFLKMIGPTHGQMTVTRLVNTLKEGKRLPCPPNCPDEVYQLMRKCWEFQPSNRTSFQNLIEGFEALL

One may read the IC50 as the point on the concentration scale where inhibition reaches its midpoint. `Cn1cc(-c2nc3c(N4C[C@H]5CC[C@@H](C4)N5C4CC(C(F)F)C4)ccnc3[nH]2)cn1` (stereo partly drawn) [Example 10, 7-((1R,5S)-8-(3-(difluoromethyl)cyclobutyl)-3,8-diazabicyclo[3.2.1]octan-3-yl)-2-(1-methyl-1H-pyrazol-4-yl)-3H-imidazo[4,5-b]pyridine]: the IC50 stood at 1350 nM in experiment [1] (setting [5]), 180 nM in experiment [2] (setting [6]), 226 nM in experiment [3] (setting [7]) and 340 nM in experiment [4] (setting [8]).

In the case of `Cn1cc(-c2nc3c(N4CC5CCC(C4)N5C4CNC4)ccnc3[nH]2)cn1` [Example 11, 7-(8-(azetidin-3-yl)-3,8-diazabicyclo[3.2.1]octan-3-yl)-2-(1-methyl-1H-pyrazol-4-yl)-3H-imidazo[4,5-b]pyridine hydrochloride], the IC50 in experiment [1] (setting [5]) was more than 5000 nM; in experiment [2] (setting [6]) it was 635 nM; in experiment [3] (setting [7]), 330 nM; in experiment [4] (setting [8]) it was 970 nM.

For the compound `CN1CC(N2C3CCC2CN(c2ccnc4[nH]c(-c5cnn(C)c5)nc24)C3)C1` [Example 12, 2-(1-methyl-1H-pyrazol-4-yl)-7-(8-(1-methylazetidin-3-yl)-3,8-diazabicyclo[3.2.1]octan-3-yl)-3H-imidazo[4,5-b]pyridine trifluoroacetate], the IC50 is more than 10000 nM in experiment [1] (setting [5]), 2300 nM in experiment [2] (setting [6]), 580 nM in experiment [3] (setting [7]) and 2850 nM in experiment [4] (setting [8]).

Turning to `COc1cc(-c2cc3c(N4CC5CCC(C4)N5C4CC(C#N)C4)ccnc3[nH]2)ccn1` (stereo not drawn) [Example 13, 3-(3-(2-(2-methoxypyridin-4-yl)-1H-pyrrolo[2,3-b]pyridin-4-yl)-3,8-diazabicyclo[3.2.1]octan-8-yl)cyclobutane-1-carbonitrile], the IC50 in experiment [1] is 82 nM; in experiment [2] it was 14 nM; in experiment [3], 4.05 nM; in experiment [4] it was 7.9 nM.

Consider `COc1cc(-c2cc3c(N4CC5CCC(C4)N5[C@H]4C[C@@H](C#N)C4)ccnc3[nH]2)ccn1` [Example 14, (1S,3s)-3-(3-(2-(2-methoxypyridin-4-yl)-1H-pyrrolo[2,3-b]pyridin-4-yl)-3,8-diazabicyclo[3.2.1]octan-8-yl)cyclobutane-1-carbonitrile], for which the IC50 in experiment [1] was determined as 1800 nM; in experiment [2] it was 170 nM; in experiment [3], 21.5 nM; in experiment [4], 205 nM.

On to `COc1cc(-c2cc3c(N4CC5CCC(C4)N5[C@H]4C[C@H](C#N)C4)ccnc3[nH]2)ccn1` [Example 15, (1R,3r)-3-(3-(2-(2-methoxypyridin-4-yl)-1H-pyrrolo[2,3-b]pyridin-4-yl)-3,8-diazabicyclo[3.2.1]octan-8-yl)cyclobutane-1-carbonitrile], for which the IC50 in experiment [1] worked out at 74.3 nM; in experiment [2] it was 15 nM; in experiment [3], 2.13 nM; in experiment [4], 13.7 nM.

`Cn1cc(-c2cc3c(N4CC5CCC(C4)N5[C@H]4C[C@@H](C#N)C4)ccnc3[nH]2)cn1` [Example 16, (1S,3s)-3-(3-(2-(1-methyl-1H-pyrazol-4-yl)-1H-pyrrolo[2,3-b]pyridin-4-yl)-3,8-diazabicyclo[3.2.1]octan-8-yl)cyclobutane-1-carbonitrile]: the 50% inhibitory concentration (IC50) was determined as 550 nM in experiment [1] (setting [5]), 117 nM in experiment [2] (setting [6]), 17.5 nM in experiment [3] (setting [7]) and 315 nM in experiment [4] (setting [8]).

For the compound `Cn1cc(-c2cc3c(N4CC5CCC(C4)N5C4CC(C#N)C4)ccnc3[nH]2)cn1` [Example 17, (1R,3r)-3-(3-(2-(1-methyl-1H-pyrazol-4-yl)-1H-pyrrolo[2,3-b]pyridin-4-yl)-3,8-diazabicyclo[3.2.1]octan-8-yl)cyclobutane-1-carbonitrile], the IC50 in experiment [1] (setting [5]) was 67.7 nM; in experiment [2] (setting [6]), 20 nM; in experiment [3] (setting [7]), 2.8 nM; in experiment [4] (setting [8]) it was 36.7 nM.

For the compound `COc1cc(-c2cc3c(N4CC5CCC(C4)N5C4COC4)ccnc3[nH]2)ccn1` [Example 18, 2-(2-methoxypyridin-4-yl)-4-(8-(oxetan-3-yl)-3,8-diazabicyclo[3.2.1]octan-3-yl)-1H-pyrrolo[2,3-b]pyridine], the IC50 in experiment [1] (setting [5]) is more than 1000 nM; in experiment [2] (setting [6]), 97 nM; in experiment [3] (setting [7]), 30.5 nM; in experiment [4] (setting [8]) it was 49.5 nM.

`COc1cc(-c2cc3c(N4CC5CCC(C4)N5C4CC(C(F)F)C4)ccnc3[nH]2)ccn1` (stereo not drawn) [Example 19, 4-(8-(3-(difluoromethyl)cyclobutyl)-3,8-diazabicyclo[3.2.1]octan-3-yl)-2-(2-methoxypyridin-4-yl)-1H-pyrrolo[2,3-b]pyridine]: the IC50 in experiment [1] (setting [5]) came to 785 nM; in experiment [2] (setting [6]), 115 nM; in experiment [3] (setting [7]), 40.5 nM; in experiment [4] (setting [8]) it was 68 nM.

For `Cn1cc(-c2cc3c(N4CC5CCC(C4)N5C4(CC#N)COC4)ccnn3c2)cn1` [Example 20, 2-(3-(3-(6-(1-methyl-1H-pyrazol-4-yl)pyrrolo[1,2-b]pyridazin-4-yl)-3,8-diazabicyclo[3.2.1]octan-8-yl)oxetan-3-yl)acetonitrile], the IC50 in experiment [1] (setting [5]) turned out to be 1400 nM; in experiment [2] (setting [6]), 265 nM; in experiment [3] (setting [7]), 40.5 nM; in experiment [4] (setting [8]) it was 520 nM.

In the case of `Cn1cc(-c2cc3c(N4CC5CCC(C4)N5C4CC(O)(C(F)(F)F)C4)ccnn3c2)cn1` (stereo not drawn) [Example 22, 3-(3-(6-(1-methyl-1H-pyrazol-4-yl)pyrrolo[1,2-b]pyridazin-4-yl)-3,8-diazabicyclo[3.2.1]octan-8-yl)-1-(trifluoromethyl)cyclobutan-1-ol], the IC50 in experiment [1] (setting [5]) was more than 10000 nM; in experiment [2] (setting [6]) it was 1200 nM; in experiment [3] (setting [7]) it was 305 nM; in experiment [4] (setting [8]) it was 5200 nM.

On to `Cn1cc(-c2cc3c(N4CC5CCC(C4)N5C4COC4)ccnn3c2)cn1` [Example 23, 6-(1-methyl-1H-pyrazol-4-yl)-4-(8-(oxetan-3-y1)-3,8-diazabicyclo[3.2.1]octan-3-yl)pyrrolo[1,2-b]pyridazine], for which the IC50 in experiment [1] (setting [5]) is 2150 nM; in experiment [2] (setting [6]) it was 185 nM; in experiment [3] (setting [7]), 14.5 nM; in experiment [4] (setting [8]) it was 310 nM.

For the compound `COC1CC(N2C3CCC2CN(c2ccnn4cc(-c5cnn(C)c5)cc24)C3)C1` (stereo not drawn) [Example 24, 4-(8-(3-methoxycyclobutyl)-3,8-diazabicyclo[3.2.1]octan-3-yl)-6-(1-methyl-1H-pyrazol-4-yl)pyrrolo[1,2-b]pyridazine], the concentration for half-maximal inhibition (IC50) in experiment [1] (setting [5]) was 4250 nM; in experiment [2] (setting [6]), 380 nM; in experiment [3] (setting [7]) it was 19 nM; in experiment [4] (setting [8]) it was 230 nM.

With `Cn1cc(-c2cc3c(N4CC5CCC(C4)N5C4CC(O)C4)ccnn3c2)cn1` (stereo not drawn) [Example 25, 3-(3-(6-(1-methyl-1H-pyrazol-4-yl)pyrrolo[1,2-b]pyridazin-4-yl)-3,8-diazabicyclo[3.2.1]octan-8-yl)cyclobutan-1-ol], the IC50 is more than 10000 nM in experiment [1] (setting [5]), 5050 nM in experiment [2] (setting [6]), 435 nM in experiment [3] (setting [7]) and 6250 nM in experiment [4] (setting [8]).

Regarding `Cn1cc(-c2cc3c(N4CC5CCC(C4)N5C4CCC4)ccnn3c2)cn1` [Example 26, 4-(8-cyclobutyl-3,8-diazabicyclo[3.2.1]octan-3-y1)-6-(1-methyl-1H-pyrazol-4-yl)pyrrolo[1,2-b]pyridazine], the IC50 in experiment [1] was more than 10000 nM; in experiment [2] it was 3300 nM; in experiment [3] it was 195 nM; in experiment [4], 6100 nM.

Consider `CO[C@H]1C[C@H](N2C3CCC2CN(c2ccnn4cc(-c5cnn(C)c5)cc24)C3)C1` [Example 29, 4-(8-((1r,3R)-3-methoxycyclobutyl)-3,8-diazabicyclo[3.2.1]octan-3-yl)-6-(1-methyl-1H-pyrazol-4-yl)pyrrolo[1,2-b]pyridazine], for which the IC50 in experiment [1] (setting [5]) is more than 10000 nM; in experiment [2] (setting [6]) it was 3600 nM; in experiment [3] (setting [7]), 187 nM; in experiment [4] (setting [8]), 6500 nM.

Regarding `CO[C@H]1C[C@@H](N2C3CCC2CN(c2ccnn4cc(-c5cnn(C)c5)cc24)C3)C1` [Example 30, 4-(8-((1s,3S)-3-methoxycyclobutyl)-3,8-diazabicyclo[3.2.1]octan-3-yl)-6-(1-methyl-1H-pyrazol-4-yl)pyrrolo[1,2-b]pyridazine], the IC50 in experiment [1] (setting [5]) was more than 10000 nM; in experiment [2] (setting [6]), 4670 nM; in experiment [3] (setting [7]), 367 nM; in experiment [4] (setting [8]), more than 10000 nM.
